Structures are written as SMILES. Where two headings read alike, the source gives them in different places.

The source of these data is US8410302B2, “Methoxyimino compounds and fungicide composition comprising same” (Kyung Nong Corporation, priority 2007, dated 2013).

The test system of experiment [1] is Rhizoctonia solani AG-1. In words: Fungicidal activity against rice sheath blight (RSB) disease, control value. The note with it: for pest or weed control at 2 ppm / pest or weed control at 10 ppm / pest or weed control at 50 ppm / pest or weed control at 100 ppm: Rhizoctonia solani, AG1, in Oryza sativa, read-out: RSB control value (C.V.); for RSB control value (C.V.): rice sheath blight.

Experiment [2] has as its system Botrytis cinerae. The experiment in a line: Fungicidal activity against cucumber gray mold rot (CGM) disease, control value. In kind it is in vivo.
Experiment [3] relates to Phytophthora infestans. The experiment in a line: whole plant or invertebrate. In kind it is in vivo. The note with it: for pest or weed control at 2 ppm / pest or weed control at 10 ppm / pest or weed control at 50 ppm / pest or weed control at 100 ppm: Phytophthora infestans, in Solanum lycopersicum, read-out: TLB control value (C.V.); for TLB control value (C.V.): tomato late blight.

The subject of experiment [4] is Erysiphae graminis. In words: Fungicidal activity against barley powdery mildew (BPM) disease, control value. In kind it is in vivo. The note with it: for pest or weed control at 2 ppm / pest or weed control at 10 ppm / pest or weed control at 50 ppm / pest or weed control at 100 ppm: 168 h, read-out: BPM control value (C.V.).
Experiment [5] relates to Puccinia recondita. The experiment in a line: Fungicidal activity against wheat leaf rust (WLR) disease, control value. Conditions: for pest or weed control at 2 ppm / pest or weed control at 10 ppm / pest or weed control at 50 ppm / pest or weed control at 100 ppm: read-out: WLR control value (C.V.). The class given is in vivo.
The test system of experiment [6] is Pyricularia oryzae Carvara KA301. In words: whole plant or invertebrate. The class given is in vivo. Conditions: for pest or weed control at 2 ppm / pest or weed control at 10 ppm / pest or weed control at 50 ppm / pest or weed control at 100 ppm: Pyricularia oryzae, read-out: RCB control value (C.V.); for RCB control value (C.V.): rice blast.
[7] abbreviates: Botrytis, 100 ppm, cucumber gray mold rot, read-out: CGM control value (C.V.).
Setting [8] is: Hordeum vulgare, 2 ppm, barley powdery mildew.
Where [9] appears, read: Hordeum vulgare, 10 ppm, barley powdery mildew.
The mark [10] stands for this setting: Hordeum vulgare, 50 ppm, barley powdery mildew.
The mark [11] stands for this setting: Hordeum vulgare, 100 ppm, barley powdery mildew.
Where [12] appears, read: Botrytis, 100 ppm, read-out: CGM control value (C.V.).

Turning to `CNC(=O)/C(=N/OC)c1ccccc1COc1c(C)cccc1C=C(Cl)Cl` [Example 50, (E)-2-(2-((2-(2,2-dichlorovinyl)-6-methylphenoxy)methyl)phenyl)-2-methoxyimino-N-methylacetamide], the pest or weed control at 2 ppm in experiment [1] was found to be 95%; in experiment [3], 90%; in experiment [4] (setting [8]) it was 100%; in experiment [5] (2 ppm, wheat leaf rust) it was 100%; in experiment [6] it was 85%. In addition, the pest or weed control at 10 ppm is 98% in experiment [1]; 99% in experiment [3]; 100% in experiment [4] (setting [9]); 100% in experiment [5] (10 ppm, wheat leaf rust); 98% in experiment [6]. The pest or weed control at 50 ppm in experiment [1] was 100%; in experiment [3], 100%; in experiment [4] (setting [10]) it was 100%; in experiment [5] (50 ppm, wheat leaf rust) it was 100%; in experiment [6] it was 100%. The pest or weed control at 100 ppm in experiment [1] was found to be 100%; in experiment [2] (setting [7]), 20%; in experiment [3] it was 100%; in experiment [4] (setting [11]) it was 100%; in experiment [5] (100 ppm, wheat leaf rust) it was 100%; in experiment [6], 100%.
`CO/N=C(/C(=O)OC)c1ccccc1COc1c(OC)ccc(C=C(Cl)Cl)c1Br` [Example 51, methyl-(E)-2-(2-((2-bromo-3-(2,2-dichlorovinyl)-6-methoxyphenoxy)methyl)phenyl)-2-methoxyiminoacetate]: the pest or weed control at 2 ppm in experiment [1] amounted to 90%; in experiment [3] it was 90%; in experiment [4] (setting [8]), 100%; in experiment [5] (2 ppm, wheat leaf rust), 100%; in experiment [6], 90%. Further, the pest or weed control at 10 ppm came to 98% in experiment [1]; 97% in experiment [3]; 100% in experiment [4] (setting [9]); 100% in experiment [5] (10 ppm, wheat leaf rust); 100% in experiment [6]. The pest or weed control at 50 ppm in experiment [1] stood at 100%; in experiment [3], 100%; in experiment [4] (setting [10]), 100%; in experiment [5] (50 ppm, wheat leaf rust) it was 100%; in experiment [6], 100%. Moreover, the pest or weed control at 100 ppm came to 100% in experiment [1]; 75% in experiment [2] (setting [7]); 100% in experiment [3]; 100% in experiment [4] (setting [11]); 100% in experiment [5] (100 ppm, wheat leaf rust); 100% in experiment [6].
Take `CNC(=O)/C(=N/OC)c1ccccc1COc1c(OC)ccc(C=C(Cl)Cl)c1Br` [Example 52]: the “RSB control value (C.V.)” value in experiment [1] (2 ppm) was found to be 95%; in experiment [1] (10 ppm), 100%; in experiment [1] (50 ppm), 100%; in experiment [1] (100 ppm), 100%. The “CGM control value (C.V.)” value in experiment [2] (100 ppm, cucumber gray mold rot) turned out to be 45%. For the same molecule, the “TLB control value (C.V.)” value in experiment [3] (2 ppm) is 95%; in experiment [3] (10 ppm) it was 100%; in experiment [3] (50 ppm) it was 100%; in experiment [3] (100 ppm), 100%. In addition, the “BPM control value (C.V.)” value is listed as 99% in experiment [4] (2 ppm, barley powdery mildew); 100% in experiment [4] (10 ppm, barley powdery mildew); 100% in experiment [4] (50 ppm, barley powdery mildew); 100% in experiment [4] (100 ppm, barley powdery mildew). Moreover, the “WLR control value (C.V.)” value in experiment [5] (2 ppm, wheat leaf rust) is given as 100%; in experiment [5] (10 ppm, wheat leaf rust), 100%; in experiment [5] (50 ppm, wheat leaf rust), 100%; in experiment [5] (100 ppm, wheat leaf rust), 100%. The “RCB control value (C.V.)” value in experiment [6] (2 ppm) was found to be 70%; in experiment [6] (10 ppm), 100%; in experiment [6] (50 ppm), 100%; in experiment [6] (100 ppm), 100%.
For `CO/N=C(/C(=O)OC)c1ccccc1COc1ccc(C=C(Cl)Cl)cc1Br` [Example 53, methyl-(E)-2-(2-((2-bromo-4-(2,2-dichlorovinyl)phenoxy)methyl)phenyl)-2-methoxyiminoacetate], the pest or weed control at 2 ppm worked out at 85% in experiment [1]; 90% in experiment [3]; 100% in experiment [4] (2 ppm); 100% in experiment [5] (Puccinia recondita, 2 ppm); 70% in experiment [6]. Further, the pest or weed control at 10 ppm is 98% in experiment [1]; 99% in experiment [3]; 100% in experiment [4] (setting [9]); 100% in experiment [5] (10 ppm, wheat leaf rust); 97% in experiment [6]. The pest or weed control at 50 ppm in experiment [1] turned out to be 100%; in experiment [3] it was 100%; in experiment [4] (setting [10]), 100%; in experiment [5] (50 ppm, wheat leaf rust), 100%; in experiment [6], 100%. Besides, the pest or weed control at 100 ppm in experiment [1] stood at 100%; in experiment [2] (setting [7]), 50%; in experiment [3], 100%; in experiment [4] (setting [11]), 100%; in experiment [5] (100 ppm, wheat leaf rust), 100%; in experiment [6], 100%.
`CNC(=O)/C(=N/OC)c1ccccc1COc1ccc(C=C(Cl)Cl)cc1Br` [Example 54, (E)-2-(2-((2-bromo-4-(2,2-dichlorovinyl)phenoxy)methyl)phenyl)-2-methoxyimino-N-methylacetamide]: the pest or weed control at 2 ppm turned out to be 90% in experiment [1]; 93% in experiment [3]; 100% in experiment [4] (2 ppm); 100% in experiment [5] (Puccinia recondita, 2 ppm); 30% in experiment [6]. Further, the pest or weed control at 10 ppm in experiment [1] worked out at 98%; in experiment [3] it was 95%; in experiment [4] (10 ppm), 100%; in experiment [5] (Puccinia recondita, 10 ppm), 100%; in experiment [6], 90%. For the same molecule, the pest or weed control at 50 ppm stood at 100% in experiment [1]; 100% in experiment [3]; 100% in experiment [4] (50 ppm); 100% in experiment [5] (Puccinia recondita, 50 ppm); 100% in experiment [6]. The pest or weed control at 100 ppm in experiment [1] turned out to be 100%; in experiment [2] (setting [12]), 65%; in experiment [3] it was 100%; in experiment [4] (100 ppm), 100%; in experiment [5] (Puccinia recondita, 100 ppm), 100%; in experiment [6], 100%.
`CO/N=C(/C(=O)OC)c1ccccc1COc1ccc(F)cc1C=C(Cl)Cl` [Example 55, methyl-(E)-2-(2-((2-(2,2-dichlorovinyl)-4-fluorophenoxy)methyl)phenyl)-2-methoxyiminoacetate]: the pest or weed control at 2 ppm came to 90% in experiment [1]; 99% in experiment [3]; 100% in experiment [4] (2 ppm); 100% in experiment [5] (Puccinia recondita, 2 ppm); 100% in experiment [6]. Further, the pest or weed control at 10 ppm in experiment [1] stood at 100%; in experiment [3], 100%; in experiment [4] (10 ppm) it was 100%; in experiment [5] (Puccinia recondita, 10 ppm) it was 100%; in experiment [6] it was 100%. Further, the pest or weed control at 50 ppm turned out to be 100% in experiment [1]; 25% in experiment [2] (Botrytis, 50 ppm, read-out: CGM control value (C.V.)); 100% in experiment [3]; 100% in experiment [4] (50 ppm); 100% in experiment [5] (Puccinia recondita, 50 ppm); 100% in experiment [6]. Also, the pest or weed control at 100 ppm in experiment [1] worked out at 100%; in experiment [2] (setting [12]) it was 75%; in experiment [3], 100%; in experiment [4] (100 ppm) it was 100%; in experiment [5] (Puccinia recondita, 100 ppm), 100%; in experiment [6], 100%.
